Test results published in US4162938A, “Antibiotic compound” (Bristol-Myers Company, priority 1978, dated 1979).
Converted amounts (≈) assume the structure as drawn. Like-named read-outs stand apart in the source and are kept apart here.

What was measured:
L-1210 leukemia = assay type: in vivo, mouse (BDF1 female)
Protocol: The compound of the present invention was also tested against the transplantable mouse tumor L-1210 lymphatic leukemia which is responsive to anthracycline-type antitumor agents.
Tumor inoculum: 10^6 ascites cells implanted i.p.
Host: BDF1 .female. mice
Evaluation: MST = median survival time
Effect: % T/C = MST treated/MST control × 100
Criteria: T/C ≥ 125 considered significant antitumor effect.

Candida krusei A-15052 = experiment: MIC, standard tube dilution procedure; assay type: cell-based
Protocol: (§1) The in vitro minimum inhibitory concentrations (MIC) of rudolphomycin were determined for a number of microorganisms using the standard tube dilution procedure.

Candida albicans A-9540 = experiment: MIC, standard tube dilution procedure; assay type: cell-based
Protocol: as §1

[1] = system: Streptococcus faecalis A-20688; experiment: MIC, standard tube dilution procedure; assay type: cell-based
Protocol: as §1

[2] = system: Enterobacter cloacae A-9659; experiment: MIC, standard tube dilution procedure; assay type: cell-based
Protocol: as §1

[3] = system: Trichophyton mentagrophytes A-9870; experiment: MIC, standard tube dilution procedure; assay type: cell-based
Protocol: as §1

Microsporum canis A-9872 = experiment: MIC, standard tube dilution procedure; assay type: cell-based
Protocol: as §1

[4] = system: Escherichia coli A-20341-1; experiment: MIC, standard tube dilution procedure; assay type: cell-based
Protocol: as §1

[5] = system: Staphylococcus aureus A-9606; experiment: MIC, standard tube dilution procedure; assay type: cell-based
Protocol: as §1

Proteus vulgaris A-9716 = experiment: MIC, standard tube dilution procedure; assay type: cell-based
Protocol: as §1

[6] = system: Klebsiella pneumoniae A-15130; experiment: MIC, standard tube dilution procedure; assay type: cell-based
Protocol: as §1

[7] = system: Candida tropicalis A-15051; experiment: MIC, standard tube dilution procedure; assay type: cell-based
Protocol: as §1

[8] = system: Pseudomonas aeruginosa A-9843A; experiment: MIC, standard tube dilution procedure; assay type: cell-based
Protocol: as §1

Escherichia coli A-15119 = experiment: MIC, standard tube dilution procedure; assay type: cell-based
Protocol: as §1

[9] = system: Staphylococcus aureus A-9537; experiment: MIC, standard tube dilution procedure; assay type: cell-based
Protocol: as §1

[10] = system: Cryptococcus neoformans A-15053; experiment: MIC, standard tube dilution procedure; assay type: cell-based
Protocol: as §1

[11] = system: Streptococcus pyogenes A-9604; experiment: MIC, standard tube dilution procedure; assay type: cell-based
Protocol: as §1

[12] = system: Serratia marcescens A-20019; experiment: MIC, standard tube dilution procedure; assay type: cell-based
Protocol: as §1

Proteus mirabilis A-9900 = experiment: MIC, standard tube dilution procedure; assay type: cell-based
Protocol: as §1

[13] = system: Streptococcus pneumoniae A-9585; experiment: MIC, standard tube dilution procedure; assay type: cell-based
Protocol: as §1

L1210 mouse leukemia = experiment: Activity of chromatographic bands on L1210 mouse leukemia system; assay type: in vivo; conditions: Example 4 bands
[14] = Biological activity of chromatographic fractions of bohemic acid complex (test not specified); conditions: Example 5, large scale LH-20
P388 mouse leukemia = experiment: Activity of chromatographic bands on P388 mouse leukemia system; assay type: in vivo; conditions: Example 4 bands
[15] = day 1 (1 inj.), 0.4 mg./kg./inj.
[16] = day 1 (1 inj.), 0.8 mg./kg./inj.
[17] = day 1 (1 inj.), 1.6 mg./kg./inj.
[18] = day 1 (1 inj.), 3.2 mg./kg./inj.
[19] = day 1 (1 inj.), 6.4 mg./kg./inj.
[20] = day 1 (1 inj.), 12.8 mg./kg./inj.
[21] = days 1, 4, 7 (3 inj.), 0.2 mg./kg./inj.
[22] = days 1, 4, 7 (3 inj.), 0.4 mg./kg./inj.
[23] = days 1, 4, 7 (3 inj.), 0.8 mg./kg./inj.
[24] = days 1, 4, 7 (3 inj.), 1.6 mg./kg./inj.
[25] = days 1, 4, 7 (3 inj.), 3.2 mg./kg./inj.
[26] = days 1, 4, 7 (3 inj.), 6.4 mg./kg./inj.
[27] = days 1→5 (5 inj.), 0.1 mg./kg./inj.
[28] = days 1→5 (5 inj.), 0.2 mg./kg./inj.
[29] = days 1→5 (5 inj.), 0.4 mg./kg./inj.
[30] = days 1→5 (5 inj.), 0.8 mg./kg./inj.
[31] = days 1→5 (5 inj.), 1.6 mg./kg./inj.
[32] = days 1→5 (5 inj.), 3.2 mg./kg./inj.
[33] = days 1→9 (9 inj.), 0.05 mg./kg./inj.
[34] = days 1→9 (9 inj.), 0.1 mg./kg./inj.
[35] = days 1→9 (9 inj.), 0.2 mg./kg./inj.
[36] = days 1→9 (9 inj.), 0.4 mg./kg./inj.
[37] = days 1→9 (9 inj.), 0.8 mg./kg./inj.
[38] = days 1→9 (9 inj.), 1.6 mg./kg./inj.

CC[C@@]1(O)C[C@H](O[C@H]2C[C@H](N(C)C)[C@H](O[C@H]3C[C@H](O)[C@H](O[C@@H]4O[C@@H](C)C(=O)C=C4N)[C@@H](C)O3)[C@@H](C)O2)c2c(cc3c(c2O)C(=O)c2c(O)ccc(O)c2C3=O)[C@H]1C(=O)OC [Rudolphomycin]
MST % T/C (L-1210 leukemia; [15]): 114%
MST (median survival time) (L-1210 leukemia; [15]): 8.0 days
MST % T/C (L-1210 leukemia; [16]): 114%
MST (median survival time) (L-1210 leukemia; [16]): 8.0 days
MST % T/C (L-1210 leukemia; [17]): 114%
MST (median survival time) (L-1210 leukemia; [17]): 8.0 days
MST % T/C (L-1210 leukemia; [18]): 143%
MST (median survival time) (L-1210 leukemia; [18]): 10.0 days
MST % T/C (L-1210 leukemia; [19]): 143%
MST (median survival time) (L-1210 leukemia; [19]): 10.0 days
MST % T/C (L-1210 leukemia; [20]): 143%
MST (median survival time) (L-1210 leukemia; [20]): 10.0 days
MST % T/C (L-1210 leukemia; [21]): 114%
MST (median survival time) (L-1210 leukemia; [21]): 8.0 days
MST % T/C (L-1210 leukemia; [22]): 114%
MST (median survival time) (L-1210 leukemia; [22]): 8.0 days
MST % T/C (L-1210 leukemia; [23]): 136%
MST (median survival time) (L-1210 leukemia; [23]): 9.5 days
MST % T/C (L-1210 leukemia; [24]): 143%
MST (median survival time) (L-1210 leukemia; [24]): 10.0 days
MST % T/C (L-1210 leukemia; [25]): 100%
MST (median survival time) (L-1210 leukemia; [25]): 7.0 days
MST % T/C (L-1210 leukemia; [26]): 129%
MST (median survival time) (L-1210 leukemia; [26]): 9.0 days
MST % T/C (L-1210 leukemia; [27]): 114%
MST (median survival time) (L-1210 leukemia; [27]): 8.0 days
MST % T/C (L-1210 leukemia; [28]): 129%
MST (median survival time) (L-1210 leukemia; [28]): 9.0 days
MST % T/C (L-1210 leukemia; [29]): 129%
MST (median survival time) (L-1210 leukemia; [29]): 9.0 days
MST % T/C (L-1210 leukemia; [30]): 143%
MST (median survival time) (L-1210 leukemia; [30]): 10.0 days
MST % T/C (L-1210 leukemia; [31]): 129%
MST (median survival time) (L-1210 leukemia; [31]): 9.0 days
MST % T/C (L-1210 leukemia; [32]): 129%
MST (median survival time) (L-1210 leukemia; [32]): 9.0 days
MST % T/C (L-1210 leukemia; [33]): 114%
MST (median survival time) (L-1210 leukemia; [33]): 8.0 days
MST % T/C (L-1210 leukemia; [34]): 107%
MST (median survival time) (L-1210 leukemia; [34]): 7.5 days
MST % T/C (L-1210 leukemia; [35]): 129%
MST (median survival time) (L-1210 leukemia; [35]): 9.0 days
MST % T/C (L-1210 leukemia; [36]): 129%
MST (median survival time) (L-1210 leukemia; [36]): 9.0 days
MST % T/C (L-1210 leukemia; [37]): 129%
MST (median survival time) (L-1210 leukemia; [37]): 9.0 days
MST % T/C (L-1210 leukemia; [38]): 107%
MST (median survival time) (L-1210 leukemia; [38]): 7.5 days
MIC (Candida krusei A-15052): > 125 µg/mL
MIC (Candida albicans A-9540): > 125 µg/mL
MIC [1]: 4 µg/mL (≈ 4.76 µM)
MIC [2]: > 63 µg/mL
MIC [3]: > 125 µg/mL
MIC (Microsporum canis A-9872): > 125 µg/mL
MIC [4]: > 63 µg/mL
MIC [5]: 8 µg/mL (≈ 9.51 µM)
MIC (Proteus vulgaris A-9716): > 63 µg/mL
MIC [6]: > 63 µg/mL
MIC [7]: > 125 µg/mL
MIC [8]: > 63 µg/mL
MIC (Escherichia coli A-15119): > 63 µg/mL
MIC [9]: 2 µg/mL (≈ 2.38 µM)
MIC [10]: 63 µg/mL (≈ 74.9 µM)
MIC [11]: 0.5 µg/mL (≈ 0.595 µM)
MIC [12]: > 63 µg/mL
MIC (Proteus mirabilis A-9900): > 63 µg/mL
MIC [13]: 0.25 µg/mL (≈ 0.297 µM)

CC[C@@]1(O)C[C@H](O[C@H]2C[C@H](N(C)C)[C@H](O[C@H]3C[C@H](O)[C@H](O)[C@H](C)O3)[C@H](C)O2)c2c(cc3c(c2O)C(=O)c2c(O)ccc(O)c2C3=O)[C@H]1C(=O)OC [musettamycin]
activity on L1210 mouse leukemia (L1210 mouse leukemia): highly active
activity of chromatographic fraction [14]: active
activity on P388 mouse leukemia (P388 mouse leukemia): highly active
